Data from US20070248954A1, “Primers for Use in Detecting Beta-Lactamases” (Creighton University, priority 2003, published 2007).
≈ marks a conversion by molar mass, not a printed value.

Legend:
[1] = test system: DNA template prepared from control strains known to produce specific CTX-M β-lactamases or ESBLs other than CTX-M β-lactamases; assay: PCR specificity test of designed primers on control strains; conditions: for amplification with the rest of the control strains: DNA template from all other control strains in Table 1; for size of single amplified product: DNA template from the control strains of the primer set's own group
Text: Once the primers are designed, their specificity can be tested using the following method. Depending on the target nucleic acid of clinical interest, a nucleic acid is isolated from a bacterial control strain known to express or contain the resistance gene. This control strain, as used herein, refers to a “positive control” nucleic acid (typically, DNA). Additionally, a “negative control” nucleic acid (typically, DNA) can be isolated from one or more bacterial strains known to express a resistance gene other than the target gene of interest. Using the polymerase chain reaction, the designed primers are employed in a detection method, as described above, and used in the positive and negative control samples and in at least one test sample suspected of containing the resistance gene of interest. The positive and negative controls provide an effective and qualitative (or grossly quantitative) means by which to establish the presence or the absence of the gene of interest of test clinical samples. It should be recognized that with a small percentage of primer pairs, possible cross-reactivity with other β-lactamase genes might be observed. However, the size and/or intensity of any cross-reactive amplified product will be considerably different and can therefore be readily evaluated and dismissed as a negative result.
Polymerase Chain Reaction (PCR) amplifications were carried out on a Thermal Cycler 9600 instrument (Applied Biosystems, Norwalk, Conn.) as indicated in Example 1, with the primers, the size of the expected amplification product, and annealing temperatures used for the PCR as listed in Table 1. Magnesium chloride concentrations were 1.5 mM for all PCR reactions.
The designed primers were tested for specificity in separate PCR reactions using DNA template prepared from control strains known to produce specific CTX-M β-lactamases or strains producing ESBLs other than CTX-M β-lactamases (Tables 1 and 2, FIG. 3). […] Group II primers amplified a single 351 bp fragment when DNA template was prepared from control strains Rio-4, 34, and CT1.
Group IV primers amplified a 474 bp product from DNA prepared from strains 785D, EC984167, CF1, Rio-6, BM4493, ILT-2, and ILT-3. […] An isolate producing CTX-M-25 was requested but not obtained. Therefore, we were unable to examine the ability of the Group III primer set to amplify blaCTX-M-25.

[2] = test system: E. coli (n = 24), Positive for CTX-M-1 group; assay: ESBL screening of clinical strains; assay type: cell-based; conditions: drug 1 μg/ml
Method: (§1) A total of 175 isolates representing E. coli (n=168), K. pneumoniae (n=7) were studied. Minimum inhibitory concentrations (MICs) to the following drugs were determined by Vitek (Vitek AMS; bioMérieux Vitek 5 Systems Inc., Hazelwood, Mo.); piperacillin (PIP), piperacillin/tazobactam (TZP), cefpodoxime (CPD), cefotaxime (CTX), ceftazidime (CAZ). The quality control strains used for this study were E. coli ATCC 25922, E. coli 35218, Pseudomonas aeruginosa ATCC 27853, Staphlylococcus aureus ATCC 29213, and K. pneumoniae ATCC 700603. Throughout this study, results were interpreted using National Committee for Clinical Laboratory Standards (NCCLS) criteria for broth dilution.
(§2) The presence of ESBLs was evaluated in both the control strains and the recent clinical isolates. Screening was performed with Vitek (Vitek AMS; bioMerieux Vitek Systems, Inc., Hazelwood, Mo.) using 1 μg/ml CPD, CAZ, and CTX. Screening and disk confirmation tests using CTX (30 μg) and CAZ (30 μg) disks in combination with 10 μg clavulanate (CLA) were performed and interpreted using NCCLS criteria for ESBL screening and disk confirmation tests. Disks for_ESBL confirmation tests were obtained from Oxoid Inc. (Nepean, Ontario, Canada). K. pneumoniae ATCC 700603 and E. coli ATCC 25922 were used as positive and negative controls, respectively.

[3] = test system: E. coli (n = 51), PCR for blaCTXM genes Negative; assay: ESBL screening of clinical strains; assay type: cell-based; conditions: drug 1 μg/ml
Method: as §1, §2

[4] = test system: E. coli (n = 93), Positive for CTX-M-1V group; assay: ESBL screening of clinical strains; assay type: cell-based; conditions: drug 1 μg/ml
Method: as §1, §2

[5] = test system: K. pneumoniae (n = 2), Positive for CTX-M-1V group; assay: ESBL screening of clinical strains; assay type: cell-based; conditions: drug 1 μg/ml
Method: as §1, §2

[6] = test system: K. pneumoniae (n = 5), PCR for blaCTXM genes Negative; assay: ESBL screening of clinical strains; assay type: cell-based; conditions: drug 1 μg/ml
Method: as §1, §2

[7] = test system: Total (n = 175) clinical strains producing extended-spectrum β-lactamases; assay: ESBL screening of clinical strains; assay type: cell-based, E. coli, K. pneumoniae; conditions: drug 1 μg/ml
Method: as §1, §2

[8] = test system: Twenty two isolates representing E. coli (Ec), Citrobacter freundii (Cf) and C. koseri (Ck); assay: MICs of the 22 isolates of Example 1; assay type: cell-based; conditions: read-out: MICs; all 22 isolates (E. coli, C. freundii, C. koseri)
Method: Twenty two isolates representing E. coli (Ec), Citrobacter freundii (Cf) and C. koseri (Ck) were studied. All of these strains had MICs of greater than (>) 32 micrograms per milliliter […] of cefotaxime, >16 mg/ml of cefepime, and ranged between 1 to 8 mg/ml for ceftazidime. Dendrogram analysis of CTX-M genes deposited in GenBank was performed, and based on these analyses, known CTX-M-genes were divided into four families. Based on these families, four sets of family-specific primers were designed. Specificity of the primers was tested on all 22 of the isolates.

ESBL-producing strains = conditions: drug used as an initial screen; cited from earlier work

Row | Molecule | Screening, No positive [2] | Screening, No positive (%) [2] | Screening, No positive [3] | Screening, No positive (%) [3] | Screening, No positive [4] | Screening, No positive (%) [4] | Screening, No positive [5] | Screening, No positive (%) [5] | Screening, No positive [6] | Screening, No positive (%) [6] | Screening, No positive [7] | Screening, No positive (%) [7] | amplification with the rest of the control strains [1] | size of single amplified product [1] | MIC [8] | also measured
1 | CTX-M-III group: primer pair of SEQ ID NO:7 and SEQ ID NO:8, Group 3 or Group 5 CTX-M β-lactamases, 307 base pair amplicon (DNA 1 CGCTTTGCCATGTGCAGCACC; DNA 2 GCTCAGTACGATCGAGCC; PCR primers, chemistry not given here, further chemistry not given here) | – | – | – | – | – | – | – | – | – | – | – | – | – | – | – | control strains whose DNA was amplified ([1]; all control strains of Table 1): amplification of DNA prepared from only one strain, Rio-3
2 | COCC1=C(C(=O)O)N2C(=O)[C@@H](NC(=O)/C(=N\OC)c3csc(N)n3)[C@H]2SC1 [CPD, cefpodoxime] | 24 | (100%) | 51 | (100%) | 93 | (100%) | 2 | (100%) | 5 | (100%) | 175 | (100%) | – | – | – | –
3 | CTX-M-I group: primer pair of SEQ ID NO:1 and SEQ ID NO:2, Group 1 CTX-M β-lactamases, 499 base pair amplicon (DNA 1 GACGATGTCACTGGCTGAGC; DNA 2 AGCCGCCGACGCTAATACA; PCR primers, chemistry not given here, further chemistry not given here) | – | – | – | – | – | – | – | – | – | – | – | – | No amplified product | 499 bp | – | –
4 | CO/N=C(\C(=O)N[C@@H]1C(=O)N2C(C(=O)[O-])=C(C[N+]3(C)CCCC3)CS[C@H]12)c1csc(N)n1 [cefepime] | – | – | – | – | – | – | – | – | – | – | – | – | – | – | > 16 µg/mL | –
5 | CC(C)(O/N=C(\C(=O)N[C@@H]1C(=O)N2C(C(=O)[O-])=C(C[n+]3ccccc3)CS[C@H]12)c1csc(N)n1)C(=O)O [CAZ, ceftazidime] | 24 | (100%) | 51 | (100%) | 71 | (76%) | 0 | (0%) | 5 | (100%) | 151 | (86%) | – | – | 1 to 8 µg/mL (≈ 1.83 to 14.6 µM) | ESBL-producing strains not detected (ESBL-producing strains): about 14%
6 | CTX-M-VI group: primer pair of SEQ ID NO:5 and SEQ ID NO:6, Group 4 CTX-M β-lactamases, 474 base pair amplicon (DNA 1 GCTGGAGAAAAGCAGCGGAG; DNA 2 GTAAGCTGACGCAACGTCTG; PCR primers, chemistry not given here, further chemistry not given here) | – | – | – | – | – | – | – | – | – | – | – | – | no amplification of DNA | 474 bp | – | –
7 | CTX-M-II group: primer pair of SEQ ID NO:3 and SEQ ID NO:4, Group 2 CTX-M β-lactamases, 351 base pair amplicon (DNA 1 GCGACCTGGTTAACTACAATCC; DNA 2 CGGTAGTATTGCCCTTAAGCC; PCR primers, chemistry not given here, further chemistry not given here) | – | – | – | – | – | – | – | – | – | – | – | – | no amplification product | 351 bp | – | –
8 | CO/N=C(\C(=O)N[C@@H]1C(=O)N2C(C(=O)O)=C(COC(C)=O)CS[C@H]12)c1csc(N)n1 [CTX, cefotaxime] | 24 | (100%) | 48 | (94%) | 93 | (100%) | 2 | (100%) | 4 | (80%) | 171 | (98%) | – | – | > 32 µg/mL | –
